Source: ChEMBL document CHEMBL4699600, “Design, Synthesis, and Biological Evaluation of Covalent Inhibitors of Focal Adhesion Kinase (FAK) against Human Malignant Glioblastoma” (J Med Chem, 2020)
The source made the active and inactive calls. The rule behind the calls is not given here.

How the values were obtained:
U-87 MG [1] = assay: Induction of apoptosis in human U87MG cells assessed as late apoptotic cells at 10 uM incubated for 48 hrs by Annexin-V/propidium iodide staining based flow cytometric method (reference value: […]); assay type: functional, U-87MG ATCC
U-87 MG [2] = assay: Cytotoxicity against human U-87 MG cells assessed as reduction in cell viability incubated for 48 hrs by MTT assay
U-87 MG [3] = assay: Induction of cell cycle arrest in human U87MG cells assessed as increase in accumulation at G2 phase at 1 uM incubated for 48 hrs by propidium iodide staining based flow cytometry analysis; assay type: functional; conditions: U-87MG ATCC
[4] = molecular target: Protein-tyrosine kinase 2-beta (Homo sapiens) (UniProt Q14289); assay: Inhibition of recombinant human full length PYK2 at 100 nM in presence of [gamma32P]-ATP by radiometric analysis relative to control
A 172 = assay: Cytotoxicity against human A172 cells assessed as reduction in cell viability incubated for 48 hrs by MTT assay; conditions: A 172, 48 h
[5] = molecular target: Epidermal growth factor receptor (Homo sapiens) (UniProt P00533); assay: Inhibition of human recombinant EGFR at 100 nM in presence of [gamma33P]ATP by radiometric assay relative to control
Focal adhesion kinase 1 [6] = molecular target: T1, Focal adhesion kinase 1 (Homo sapiens, UniProt Q05397); assay: Inhibition of recombinant human N-terminal His-tagged FAK (393 to 698 residues) expressed in baculovirus infected Sf9 insect cells using Poly (4:1 Glu, Tyr) as substrate measured after 1 hr by ADP-glo luminescence assay
Target sequence in this assay (Q05397 whole entry, the tested form may be a part): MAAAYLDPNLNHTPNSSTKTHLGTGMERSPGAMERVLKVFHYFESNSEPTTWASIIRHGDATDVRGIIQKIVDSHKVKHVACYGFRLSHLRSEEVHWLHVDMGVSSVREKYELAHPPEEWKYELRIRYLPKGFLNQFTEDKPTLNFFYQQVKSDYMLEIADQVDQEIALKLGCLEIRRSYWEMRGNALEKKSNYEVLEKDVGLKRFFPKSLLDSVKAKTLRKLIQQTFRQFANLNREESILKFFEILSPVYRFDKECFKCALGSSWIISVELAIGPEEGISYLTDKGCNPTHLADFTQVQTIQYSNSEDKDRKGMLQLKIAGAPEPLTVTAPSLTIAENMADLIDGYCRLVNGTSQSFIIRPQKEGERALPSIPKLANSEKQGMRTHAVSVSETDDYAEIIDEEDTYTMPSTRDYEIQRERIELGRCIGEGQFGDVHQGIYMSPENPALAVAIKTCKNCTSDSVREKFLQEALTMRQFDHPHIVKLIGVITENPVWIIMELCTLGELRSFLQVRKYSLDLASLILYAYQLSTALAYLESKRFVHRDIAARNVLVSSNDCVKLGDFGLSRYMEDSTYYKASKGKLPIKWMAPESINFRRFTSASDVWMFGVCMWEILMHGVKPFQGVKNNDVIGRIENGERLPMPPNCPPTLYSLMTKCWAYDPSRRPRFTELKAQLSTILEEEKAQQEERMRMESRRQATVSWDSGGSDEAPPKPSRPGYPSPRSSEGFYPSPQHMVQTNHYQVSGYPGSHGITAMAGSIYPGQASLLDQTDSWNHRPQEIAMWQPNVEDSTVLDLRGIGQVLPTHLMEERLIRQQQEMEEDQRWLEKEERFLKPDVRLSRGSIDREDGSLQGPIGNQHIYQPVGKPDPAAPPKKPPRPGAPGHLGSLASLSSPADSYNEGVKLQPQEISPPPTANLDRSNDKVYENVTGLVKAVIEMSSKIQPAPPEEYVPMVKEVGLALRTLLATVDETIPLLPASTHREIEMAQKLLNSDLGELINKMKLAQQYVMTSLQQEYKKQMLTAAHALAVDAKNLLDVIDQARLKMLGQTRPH

[7] = molecular target: Platelet-derived growth factor receptor alpha (Homo sapiens) (UniProt P16234); assay: Inhibition of human recombinant PDGFRA at 100 nM by [gamma-33ATP] radiometric assay relative to control
Chain of Platelet-derived growth factor receptor alpha (Homo sapiens) (P16234 whole entry): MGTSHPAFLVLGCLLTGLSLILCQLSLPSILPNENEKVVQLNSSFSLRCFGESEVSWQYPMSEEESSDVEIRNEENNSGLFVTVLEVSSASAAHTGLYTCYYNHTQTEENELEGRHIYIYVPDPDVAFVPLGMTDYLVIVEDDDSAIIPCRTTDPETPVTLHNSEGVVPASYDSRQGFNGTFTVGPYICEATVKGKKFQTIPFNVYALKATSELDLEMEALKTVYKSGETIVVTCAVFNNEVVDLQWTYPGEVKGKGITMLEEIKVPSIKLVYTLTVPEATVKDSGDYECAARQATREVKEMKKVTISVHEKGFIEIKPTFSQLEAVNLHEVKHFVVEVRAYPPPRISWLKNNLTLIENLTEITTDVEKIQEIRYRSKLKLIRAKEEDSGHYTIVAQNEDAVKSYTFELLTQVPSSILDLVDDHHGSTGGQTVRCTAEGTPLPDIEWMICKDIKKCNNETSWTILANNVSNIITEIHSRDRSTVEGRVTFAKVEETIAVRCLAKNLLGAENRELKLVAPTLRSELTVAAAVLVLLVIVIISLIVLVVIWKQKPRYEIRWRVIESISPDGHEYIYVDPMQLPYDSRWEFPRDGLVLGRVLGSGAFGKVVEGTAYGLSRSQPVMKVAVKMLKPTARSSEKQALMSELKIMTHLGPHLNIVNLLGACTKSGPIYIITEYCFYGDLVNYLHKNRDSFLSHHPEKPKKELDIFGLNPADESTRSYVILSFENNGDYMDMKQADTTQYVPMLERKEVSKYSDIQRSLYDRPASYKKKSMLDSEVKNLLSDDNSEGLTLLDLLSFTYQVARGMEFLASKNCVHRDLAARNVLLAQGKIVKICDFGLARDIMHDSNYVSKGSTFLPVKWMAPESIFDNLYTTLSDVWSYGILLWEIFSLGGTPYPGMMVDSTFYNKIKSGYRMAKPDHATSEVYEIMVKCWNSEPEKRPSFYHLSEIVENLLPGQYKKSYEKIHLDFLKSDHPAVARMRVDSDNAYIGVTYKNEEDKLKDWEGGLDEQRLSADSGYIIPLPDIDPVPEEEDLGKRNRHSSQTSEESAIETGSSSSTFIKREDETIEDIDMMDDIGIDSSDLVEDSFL

U-87 MG [8] = assay: Induction of apoptosis in human U87MG cells assessed as live cells at 10 uM incubated for 48 hrs by Annexin-V/propidium iodide staining based flow cytometric method (reference value: 94.2%); assay type: functional, U-87MG ATCC
Focal adhesion kinase 1 [9] = molecular target: T1, Focal adhesion kinase 1; conditions: U-87 MG, dose microM 0.6-3, time 48.0 hrs
[10] = molecular target: Fibroblast growth factor receptor 1 (Homo sapiens) (UniProt P11362); assay: Inhibition of human recombinant FGFR1 (456 to 765 residues) at 100 nM in presence of [gamma33P]ATP by radiometric assay relative to control
U-87 MG [11] = assay: Induction of apoptosis in human U87MG cells assessed as necrotic cells at 10 uM incubated for 48 hrs by Annexin-V/propidium iodide staining based flow cytometric method (reference value: […]); assay type: functional, U-87MG ATCC
Focal adhesion kinase 1 [12] = molecular target: T1, Focal adhesion kinase 1; assay: Inhibition of human recombinant FAK at 100 nM by [gamma32P]-ATP radiometric analysis relative to control
Focal adhesion kinase 1 [13] = molecular target: T1, Focal adhesion kinase 1; conditions: U-87 MG, dose microM 0.1-5, time 48.0 hrs
[14] = molecular target: T2, Serine/threonine-protein kinase AKT (Homo sapiens) (UniProt P31751+Q9Y243+P31749); assay: Inhibition of human Akt at 100 nM in presence of [33P]-ATP by radiometric analysis relative to control; assay type: protein assay
T2 sequence (P31749 whole entry, looked up): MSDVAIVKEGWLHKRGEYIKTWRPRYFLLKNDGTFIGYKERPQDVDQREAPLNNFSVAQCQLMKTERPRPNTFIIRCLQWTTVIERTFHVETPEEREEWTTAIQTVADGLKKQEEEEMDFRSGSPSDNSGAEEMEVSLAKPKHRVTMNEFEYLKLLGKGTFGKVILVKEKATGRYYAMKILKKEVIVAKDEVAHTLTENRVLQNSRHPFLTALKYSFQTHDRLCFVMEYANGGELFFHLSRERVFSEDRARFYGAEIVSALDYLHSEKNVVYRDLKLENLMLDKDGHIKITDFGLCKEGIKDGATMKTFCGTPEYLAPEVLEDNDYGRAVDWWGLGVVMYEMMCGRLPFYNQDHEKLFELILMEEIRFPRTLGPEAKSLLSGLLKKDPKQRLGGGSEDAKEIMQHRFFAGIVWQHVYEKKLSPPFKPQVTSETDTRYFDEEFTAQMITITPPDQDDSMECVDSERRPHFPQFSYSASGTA
T2 sequence (P31751 whole entry, looked up): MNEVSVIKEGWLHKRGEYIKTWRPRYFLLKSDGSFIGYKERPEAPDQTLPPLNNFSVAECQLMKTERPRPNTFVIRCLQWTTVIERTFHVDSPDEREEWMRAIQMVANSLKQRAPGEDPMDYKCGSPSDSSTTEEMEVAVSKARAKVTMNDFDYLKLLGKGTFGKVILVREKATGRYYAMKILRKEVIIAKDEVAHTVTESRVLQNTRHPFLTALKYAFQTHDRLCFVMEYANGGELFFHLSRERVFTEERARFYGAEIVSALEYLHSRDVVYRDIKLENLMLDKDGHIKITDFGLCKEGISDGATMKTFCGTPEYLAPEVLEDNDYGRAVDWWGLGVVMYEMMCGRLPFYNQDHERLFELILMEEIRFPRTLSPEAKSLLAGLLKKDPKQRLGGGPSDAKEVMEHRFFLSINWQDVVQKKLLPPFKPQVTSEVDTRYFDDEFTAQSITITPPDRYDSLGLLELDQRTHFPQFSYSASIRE
T2 sequence (Q9Y243 whole entry, looked up): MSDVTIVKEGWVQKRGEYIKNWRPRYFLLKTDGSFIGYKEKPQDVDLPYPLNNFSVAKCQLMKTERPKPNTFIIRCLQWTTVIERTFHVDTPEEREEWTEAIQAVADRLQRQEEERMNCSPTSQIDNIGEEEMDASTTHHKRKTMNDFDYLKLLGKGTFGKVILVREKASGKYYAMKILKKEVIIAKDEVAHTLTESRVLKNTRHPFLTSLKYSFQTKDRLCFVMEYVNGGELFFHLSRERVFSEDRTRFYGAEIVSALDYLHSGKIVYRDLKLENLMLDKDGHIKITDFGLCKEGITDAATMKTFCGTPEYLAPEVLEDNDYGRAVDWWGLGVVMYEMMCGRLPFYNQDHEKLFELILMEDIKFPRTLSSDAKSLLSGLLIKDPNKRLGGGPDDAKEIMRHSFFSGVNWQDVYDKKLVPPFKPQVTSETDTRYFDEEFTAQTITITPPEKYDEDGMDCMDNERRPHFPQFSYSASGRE

U-87 MG [15] = assay: Induction of apoptosis in human U87MG cells assessed as early apoptotic cells at 10 uM incubated for 48 hrs by Annexin-V/propidium iodide staining based flow cytometric method (reference value: 4.55 %); assay type: functional, U-87MG ATCC
U-87 MG [16] = assay: Induction of cell cycle arrest in human U87MG cells assessed as multi-nucleated giant cells at 1 uM incubated for 48 hrs by TO-PRO-3 dye based immunocytochemistry analysis; assay type: functional; conditions: U-87MG ATCC
[17] = molecular target: Mast/stem cell growth factor receptor Kit (Homo sapiens) (UniProt P10721); assay: Inhibition of human recombinant c-kit at 100 nM in presence of [gamma33P]ATP by radiometric assay relative to control
Chain of Mast/stem cell growth factor receptor Kit (Homo sapiens) (P10721 whole entry): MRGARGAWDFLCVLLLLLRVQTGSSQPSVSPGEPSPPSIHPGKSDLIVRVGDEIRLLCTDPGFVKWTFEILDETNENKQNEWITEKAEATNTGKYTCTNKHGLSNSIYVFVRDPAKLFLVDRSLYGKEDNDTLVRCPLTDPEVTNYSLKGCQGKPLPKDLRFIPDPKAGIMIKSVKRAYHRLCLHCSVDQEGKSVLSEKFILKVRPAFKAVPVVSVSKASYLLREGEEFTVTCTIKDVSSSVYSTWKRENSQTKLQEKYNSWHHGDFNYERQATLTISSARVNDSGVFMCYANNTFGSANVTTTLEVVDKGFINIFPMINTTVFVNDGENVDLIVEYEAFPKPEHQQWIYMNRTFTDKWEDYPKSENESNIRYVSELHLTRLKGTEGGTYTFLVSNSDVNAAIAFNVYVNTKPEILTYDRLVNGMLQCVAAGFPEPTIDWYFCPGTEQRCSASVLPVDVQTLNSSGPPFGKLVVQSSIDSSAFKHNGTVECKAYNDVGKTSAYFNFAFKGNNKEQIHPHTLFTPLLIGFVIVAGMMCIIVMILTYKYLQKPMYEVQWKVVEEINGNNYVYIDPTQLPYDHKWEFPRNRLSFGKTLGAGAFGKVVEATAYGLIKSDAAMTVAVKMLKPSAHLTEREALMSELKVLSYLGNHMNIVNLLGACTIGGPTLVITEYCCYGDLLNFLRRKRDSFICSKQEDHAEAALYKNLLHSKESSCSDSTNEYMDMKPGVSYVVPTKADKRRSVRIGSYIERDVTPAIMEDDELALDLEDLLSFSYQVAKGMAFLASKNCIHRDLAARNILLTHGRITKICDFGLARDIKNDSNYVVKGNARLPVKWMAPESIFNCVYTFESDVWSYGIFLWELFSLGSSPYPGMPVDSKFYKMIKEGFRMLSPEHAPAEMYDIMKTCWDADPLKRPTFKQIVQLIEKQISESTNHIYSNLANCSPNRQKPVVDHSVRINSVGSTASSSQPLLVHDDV

U-87 MG [18] = assay: Induction of cellular senescence in human U87MG cells assessed as flat and enlarged cells at 1 uM incubated for 48 hrs by TO-PRO-3 dye based immunocytochemistry analysis; assay type: functional, cell-based; conditions: U-87MG ATCC
U-251 = assay: Cytotoxicity against human U251 cells assessed as reduction in cell viability incubated for 48 hrs by MTT assay; conditions: U-251, 48 h
U-87 MG [19] = assay: Induction of cell cycle arrest in human U87MG cells assessed as accumulation at S phase at 1 uM incubated for 48 hrs by propidium iodide staining based flow cytometry analysis (reference value: 19.5 %); assay type: functional, U-87MG ATCC
Homo sapiens = organism: Homo sapiens; assay: Inhibition of human recombinant Erk at 100 nM measured in presence of [33P]-ATP by radiometric analysis relative to control
U-87 MG [20] = assay: Inhibition of cell adhesion in human U87MG cells assessed as increase in appearance of stress fiber at 1 uM incubated for 48 hrs by FITC-conjugated phalloidin and TO-PRO3 staining based microscopic analysis; assay type: functional; conditions: U-87MG ATCC
U-87 MG [21] = assay: Activation of ERK in human U87MG cells at 0.1 to 10 uM incubated for 48 hrs by Western blot analysis; assay type: cell-based; conditions: dose microM 0.1-10, time 48.0 hrs
U-87 MG [22] = assay: Inhibition of cell migration in human U87MG cells assessed as reduction of cell mobility at 0.2 to 1 uM measured at 24 to 48 hrs by scratch wound assay; assay type: functional, cell-based; conditions: U-87MG ATCC, dose microM 0.2-1, time hrs 24-48
Focal adhesion kinase 1 [23] = molecular target: T1, Focal adhesion kinase 1; conditions: U-87 MG, dose microM 0.1-10, time 48.0 hrs
Focal adhesion kinase 1 [24] = molecular target: T1, Focal adhesion kinase 1; conditions: U-87 MG, dose microM 0.1-5, time 48.0 hrs; remark: listed apart in the source
[25] = molecular target: Insulin-like growth factor 1 receptor (Homo sapiens) (UniProt P08069); assay: Inhibition of human recombinant IGF1R at 100 nM by [gamma-33ATP] radiometric assay relative to control
Focal adhesion kinase 1 [26] = molecular target: T1, Focal adhesion kinase 1; assay: Covalent inhibition of recombinant human N-terminal His-tagged FAK (393 to 698 residues) expressed in baculovirus infected Sf9 insect cells using Poly (4:1 Glu, Tyr) as substrate preincubated for 2 to 60 mins followed by substrate addition and measured after 1 hr by ADP-glo luminescence assay
Target sequence in this assay (Q05397 whole entry, the tested form may be a part): as the sequence (Q05397 whole entry, the tested form may be a part) above

Focal adhesion kinase 1 [27] = molecular target: T1, Focal adhesion kinase 1; conditions: U-87 MG, dose microM 0.1-10, time 48.0 hrs; remark: listed apart in the source
U-87 MG [28] = assay: Induction of cell cycle arrest in human U87MG cells assessed as accumulation in G2/M phase at 1 uM incubated for 48 hrs by propidium iodide staining based flow cytometry analysis (reference value: 28.9 +/- 2.1 %); assay type: functional, U-87MG ATCC; conditions: dose microM 1-10
[29] = molecular target: Proto-oncogene tyrosine-protein kinase Src (Homo sapiens) (UniProt P12931); assay: Inhibition of human recombinant Src at 100 nM in presence of [gamma33P]ATP by radiometric assay relative to control
[30] = molecular target: Insulin receptor (Homo sapiens) (UniProt P06213); assay: Inhibition of human recombinant IR at 100 nM by [gamma-33ATP] radiometric analysis relative to control
Focal adhesion kinase 1 [31] = molecular target: T1, Focal adhesion kinase 1; conditions: U-87 MG, dose microM 0.1-10, time 48.0 hrs; remark: listed apart in the source
U-87 MG [32] = assay: Induction of cell cycle arrest in human U87MG cells assessed as accumulation at G0/G1 phase at 1 uM incubated for 48 hrs by propidium iodide staining based flow cytometry analysis (reference value: 51.6 +/- […]); assay type: functional, U-87MG ATCC
[33] = molecular target: T2, Serine/threonine-protein kinase AKT (Homo sapiens); assay: Activation of AKT in human U87MG cells at 0.1 to 10 uM incubated for 48 hrs by Western blot analysis; assay type: cell-based; conditions: U-87 MG, dose microM 0.1-10, time 48.0 hrs

| Structure (SMILES) | Activity (U-87 MG [1]) | IC50 (U-87 MG [2]) | Activity (U-87 MG [3]) | inhibition [4] | IC50 (A 172) | inhibition [5] | IC50 (Focal adhesion kinase 1 [6]) | inhibition [7] | Activity (U-87 MG [8]) | inhibition (Focal adhesion kinase 1 [9]) | Activity (U-87 MG [11]) | Activity (U-87 MG [15]) | Activity (U-87 MG [16]) | Activity (U-87 MG [18]) | IC50 (U-251) | Activity (U-87 MG [19]) | inhibition (U-87 MG [20]) | inhibition (U-87 MG [22]) | Activity (U-87 MG [28]) | Activity (U-87 MG [32]) | further results |
| --- | --- | --- | --- | --- | --- | --- | --- | --- | --- | --- | --- | --- | --- | --- | --- | --- | --- | --- | --- | --- | --- |
| C=CC(=O)NCCNc1c(NCc2ccc(Nc3ncc(Cl)c(Nc4ccccc4C(=O)NC)n3)cc2)c(=O)c1=O | 2.45% | 2.2 µM | Active | 97.6% | 0.65 µM | 47.2% | 0.0006 µM | 91% | 90.8% | Dose-dependent effect | 0.67% | 6.05% | Active | Active | 0.22 µM | 10% | Active | Active | 80.8% | 9.2% | inhibition [10]: 87.1%; inhibition (Focal adhesion kinase 1 [12]): 98.1%; inhibition (Focal adhesion kinase 1 [13]): inactive; inhibition [14]: 3.7%; inhibition [17]: 0.2%; inhibition (Homo sapiens): 14.2%; Activity (U-87 MG [21]): inactive; inhibition (Focal adhesion kinase 1 [23]): Dose-dependent effect; inhibition (Focal adhesion kinase 1 [24]): Dose-dependent effect; inhibition [25]: 91.5%; Ki (Focal adhesion kinase 1 [26]): 0.00023 µM; inhibition (Focal adhesion kinase 1 [27]): Dose-dependent effect; inhibition [29]: 52.1%; inhibition [30]: 57.6%; inhibition (Focal adhesion kinase 1 [31]): Dose-dependent effect; Activity [33]: inactive |
| CNC(=O)c1ccccc1Nc1nc(Nc2ccc(CNc3c(NCCNC(=O)/C(C#N)=C/C4CC4)c(=O)c3=O)cc2)ncc1Cl | 4.06% | 7.2 µM | Active | – | 0.89 µM | – | – | – | 87.3% | – | 1.39% | 7.3% | Active | Active | 1.2 µM | 8.8% | Active | Active | 83.1% | 8.1% | – |
| CNC(=O)c1ccccc1Nc1nc(Nc2ccc(N3CCOCC3)cc2OC)ncc1Cl | 2.45% | 2.9 µM | Active | – | 8.3 µM | – | – | – | 88.1% | Dose-dependent effect | 2.2% | 7.24% | Active | Active | 6.3 µM | 19.5% | Active | Active | 66.1% | 16.2% | inhibition (Focal adhesion kinase 1 [13]): Active; inhibition (Focal adhesion kinase 1 [23]): Dose-dependent effect; inhibition (Focal adhesion kinase 1 [27]): Dose-dependent effect; inhibition (Focal adhesion kinase 1 [31]): Dose-dependent effect |
| C=CC(=O)NCCNc1c(NCc2ccc(Nc3ncc(Cl)c(NCc4cccnc4N(C)S(C)(=O)=O)n3)cc2)c(=O)c1=O | – | – | – | 68.3% | – | 1.2% | 0.0055 µM | 12.5% | – | – | – | – | – | – | – | – | – | – | – | – | inhibition [10]: 32.5%; inhibition (Focal adhesion kinase 1 [12]): 92.2%; inhibition [14]: 2.5%; inhibition [17]: 0%; inhibition (Homo sapiens): 4.1%; inhibition [25]: 28.1%; inhibition [29]: 17.9%; inhibition [30]: 15.1% |
| CNC(=O)c1ccccc1Nc1nc(Nc2ccc(CNc3c(NCCNC(=O)/C(C#N)=C/C(C)C)c(=O)c3=O)cc2)ncc1Cl | 0.21% | 7.1 µM | Active | 97.5% | 1.3 µM | 25.1% | 0.0012 µM | 67.5% | 96.4% | Dose-dependent effect | 3.37% | 0% | Active | Active | 9.8 µM | 8.2% | Active | Active | 79.1% | 12.7% | inhibition [10]: 83.5%; inhibition (Focal adhesion kinase 1 [12]): 94.1%; inhibition (Focal adhesion kinase 1 [13]): inactive; inhibition [14]: 19.9%; inhibition [17]: 0%; inhibition (Homo sapiens): 4.3%; Activity (U-87 MG [21]): inactive; inhibition (Focal adhesion kinase 1 [23]): Dose-dependent effect; inhibition (Focal adhesion kinase 1 [24]): Dose-dependent effect; inhibition [25]: 71.9%; Ki (Focal adhesion kinase 1 [26]): 0.00047 µM; inhibition (Focal adhesion kinase 1 [27]): Dose-dependent effect; inhibition [29]: 31.1%; inhibition [30]: 32.4%; inhibition (Focal adhesion kinase 1 [31]): Dose-dependent effect; Activity [33]: inactive |
| C=CC(=O)NCCNc1c(NCc2ccc(Nc3ncc(C(F)(F)F)c(Nc4ccccc4C(=O)NC)n3)cc2)c(=O)c1=O | 3.85% | 3.3 µM | Active | 99.8% | 0.13 µM | 29% | 0.0068 µM | 78.4% | – | Dose-dependent effect | 1.1% | 5.6% | Active | Active | 0.15 µM | 11.2% | Active | Active | 75.1% | 13.7% | inhibition [10]: 88.3%; inhibition (Focal adhesion kinase 1 [12]): 98.6%; inhibition [14]: 25.1%; inhibition [17]: 0.1%; inhibition (Homo sapiens): 21.8%; inhibition [25]: 94.4%; Ki (Focal adhesion kinase 1 [26]): 0.00264 µM; inhibition [29]: 55.6%; inhibition [30]: 82.5% |
